Laboratory results published in patent US9284321B2, “Piperazino[1,2-a]indol-1-ones and [1,4]diazepino[1,2-a]indol-1-one” (Hoffmann-La Roche Inc., priority 2012, dated 2016).

Assays:
[1] = system: human embryonic stem cell derived neural stem cells (NSCs); assay: Neural Stem Cell Proliferation Assay (neurogenesis assay, ATP levels by CellTiterGlo); assay type: cell-based; settings: 96 h, compound concentration at which 150% activity of control (100%) is reached, NSC proliferation by ATP level after 4 days incubation, dose response 8 μM to 8 nM
Method in brief: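 Read-out is CellTiterGlo ATP luminescence after 4-day culture (37 °C, 5% CO2) of dual-SMAD-derived human ESC NSCs, dosed 4 h post-seeding at 8 μM to 8 nM (11 points, 2-fold). EC150 marks the concentration reaching 150% of the media-only control (0.25% DMSO).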

melting point	SMILES	EC (150% of control) [1]
278 °C	Cc1c2n(c3c(-c4ccc(F)c(F)c4)cc(C#N)cc13)CCCNC2=O [Example 196, 7-(3,4-Difluorophenyl)-11-methyl-1-oxo-2,3,4,5-tetrahydro-[1,4]diazepino[1,2-a]indole-9-carbonitrile]	0.086 µM
239.5 °C	O=C1NCCCn2c1cc1cc(F)cc(-c3ccc(F)cc3)c12 [Example 17, 9-Fluoro-7-(4-fluoro-phenyl)-2,3,4,5-tetrahydro-[1,4]diazepino[1,2-a]indol-1-one]	0.05 µM
309 °C	N#Cc1cc(-c2ccc(Cl)c(F)c2)c2c(c1)cc1n2CCNC1=O [Example 172, 6-(4-Chloro-3-fluoro-phenyl)-1-oxo-1,2,3,4-tetrahydro-pyrazino[1,2-a]indole-8-carbonitrile]	0.045 µM
314 °C	Cc1c2n(c3c(-c4ccc(C#N)cc4)cc(C#N)cc13)CCCNC2=O [Example 200, 7-(4-Cyanophenyl)-11-methyl-1-oxo-2,3,4,5-tetrahydro-[1,4]diazepino[1,2-a]indole-9-carbonitrile]	0.041 µM
212 °C	CN1CCn2c(cc3cc(F)cc(-c4ccc(F)cc4)c32)C1=O [Example 63, 8-Fluoro-6-(4-fluoro-phenyl)-2-methyl-3,4-dihydro-2H-pyrazino[1,2-a]indol-1-one]	0.6 µM
207.5 °C	COc1ccc(-c2cc(F)c(F)c3cc4n(c23)CCCNC4=O)cc1 [Example 37, 9,10-Difluoro-7-(4-methoxy-phenyl)-2,3,4,5-tetrahydro-[1,4]diazepino[1,2-a]indol-1-one]	0.45 µM
241.5 °C	N#Cc1cc(-c2ccc(C(F)(F)F)cc2)c2c(c1)cc1n2CCCNC1=O [Example 218, 1-Oxo-7-[4-(trifluoromethyl)-phenyl]-2,3,4,5-tetrahydro-[1,4]diazepino[1,2-a]indole-9-carbonitrile]	0.45 µM

The next lines start with the compound.

SMILES	melting point	EC (150% of control) [1]
Cc1c2n(c3c(-c4ccc(C(C)(C)C)cc4)cc(C#N)cc13)CCNC2=O [Example 280, 6-(4-tert-Butylphenyl)-10-methyl-1-oxo-3,4-dihydro-2H-pyrazino[1,2-a]indole-8-carbonitrile]	292 °C	0.14 µM
Cc1c2n(c3c(-c4cc(F)cc(F)c4)cc(C#N)cc13)CCCNC2=O [Example 290, 7-(3,5-Difluorophenyl)-11-methyl-1-oxo-2,3,4,5-tetrahydro-[1,4]diazepino[1,2-a]indole-9-carbonitrile]	265 °C	0.29 µM
Cc1c2n(c3c(-c4ccc(N(C)C)nc4)cc(F)cc13)CCNC2=O [Example 158, 6-(6-Dimethylamino-pyridin-3-yl)-8-fluoro-10-methyl-3,4-dihydro-2H-pyrazino[1,2-a]indol-1-one]	259 °C	0.012 µM
Cc1c2n(c3c(-c4ncc(C(F)(F)F)s4)cc(F)cc13)CCNC2=O [Example 186, 8-Fluoro-10-methyl-6-[5-(trifluoromethyl)-1,3-thiazol-2-yl]-3,4-dihydro-2H-pyrazino[1,2-a]indol-1-one]	263 °C	0.33 µM
C[C@@H]1CNC(=O)c2cc3cccc(-c4ccccc4)c3n21 [Example 1, (R)-4-Methyl-6-phenyl-3,4-dihydro-2H-pyrazino[1,2-a]indol-1-one]	239 °C	3.97 µM
Cc1cc(-c2cc(Cl)cc3c(C)c4n(c23)CCNC4=O)ccc1F [Example 134, 8-Chloro-6-(4-fluoro-3-methyl-phenyl)-10-methyl-3,4-dihydro-2H-pyrazino[1,2-a]indol-1-one]	235.5 °C	0.083 µM
Cc1cc(-c2cc(C#N)cc3c(C)c4n(c23)CCNC4=O)ccc1F [Example 292, 6-(4-Fluoro-3-methylphenyl)-10-methyl-1-oxo-3,4-dihydro-2H-pyrazino[1,2-a]indole-8-carbonitrile]	232 °C	0.089 µM
